Assay results published in patent US9573987B2 (priority 2011, dated 2017).
Several values for one entry are separate records, joined by “and”; a condition that tells them apart may be missing. Identical values can stand only once. Each block holds one molecule with its values, some of them ahead of it. *1 amine or outer side, *2 acyl side, *3 side chain or, on linkers, in order; H or OH if unused. Where a SMILES comes first, the peptide text is derived from it. Side-chain parts run from the residue outwards. [ ]: non-standard residue; d: D form. Phe(4-NH2) = Nc1ccc(C[C@H](N)C(=O)O)cc1; d(εLys) = N[C@H](CCCCN[*:1])C(=O)[*:2]; NMeA = CN[C@@H](C)C(=O)O; Sar = CNCC(=O)O

Tests used:
insulin receptor [1] = molecular target: T1, insulin receptor (Homo sapiens, UniProt P06213); assay: Insulin receptor binding assay (competition, scintillation proximity); parameters: expressed in transfected cells; plasma membrane fragments; conditions: for Ratio: IGF-1 receptor IC50 over insulin receptor IC50
IGF-1 receptor [2] = molecular target: T2, IGF-1 receptor (Homo sapiens, UniProt P08069); assay: IGF-1 receptor binding assay (competition, scintillation proximity); parameters: expressed in transfected cells; plasma membrane fragments; conditions: Table 9
T2 sequence (P08069 31-736 limits assumed): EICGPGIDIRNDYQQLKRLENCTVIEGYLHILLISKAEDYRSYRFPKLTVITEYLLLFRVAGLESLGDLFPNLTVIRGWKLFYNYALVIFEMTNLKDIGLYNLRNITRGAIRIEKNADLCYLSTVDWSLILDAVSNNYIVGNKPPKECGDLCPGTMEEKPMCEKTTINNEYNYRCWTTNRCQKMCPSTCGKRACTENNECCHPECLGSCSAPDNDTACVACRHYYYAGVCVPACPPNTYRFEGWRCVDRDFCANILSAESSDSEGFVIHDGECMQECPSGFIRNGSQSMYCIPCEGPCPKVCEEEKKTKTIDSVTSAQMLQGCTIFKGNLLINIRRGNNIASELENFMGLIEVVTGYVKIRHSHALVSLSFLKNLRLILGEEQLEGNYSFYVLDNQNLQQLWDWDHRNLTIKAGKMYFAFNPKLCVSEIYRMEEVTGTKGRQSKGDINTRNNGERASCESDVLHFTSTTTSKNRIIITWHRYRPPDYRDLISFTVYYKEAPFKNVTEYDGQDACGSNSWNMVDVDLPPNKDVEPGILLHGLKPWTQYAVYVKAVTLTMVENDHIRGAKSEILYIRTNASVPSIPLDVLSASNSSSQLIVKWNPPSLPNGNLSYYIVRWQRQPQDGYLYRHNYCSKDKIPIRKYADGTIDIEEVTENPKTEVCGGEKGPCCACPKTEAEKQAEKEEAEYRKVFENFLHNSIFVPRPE
T2 sequence (P08069 741-1367 partner limits assumed): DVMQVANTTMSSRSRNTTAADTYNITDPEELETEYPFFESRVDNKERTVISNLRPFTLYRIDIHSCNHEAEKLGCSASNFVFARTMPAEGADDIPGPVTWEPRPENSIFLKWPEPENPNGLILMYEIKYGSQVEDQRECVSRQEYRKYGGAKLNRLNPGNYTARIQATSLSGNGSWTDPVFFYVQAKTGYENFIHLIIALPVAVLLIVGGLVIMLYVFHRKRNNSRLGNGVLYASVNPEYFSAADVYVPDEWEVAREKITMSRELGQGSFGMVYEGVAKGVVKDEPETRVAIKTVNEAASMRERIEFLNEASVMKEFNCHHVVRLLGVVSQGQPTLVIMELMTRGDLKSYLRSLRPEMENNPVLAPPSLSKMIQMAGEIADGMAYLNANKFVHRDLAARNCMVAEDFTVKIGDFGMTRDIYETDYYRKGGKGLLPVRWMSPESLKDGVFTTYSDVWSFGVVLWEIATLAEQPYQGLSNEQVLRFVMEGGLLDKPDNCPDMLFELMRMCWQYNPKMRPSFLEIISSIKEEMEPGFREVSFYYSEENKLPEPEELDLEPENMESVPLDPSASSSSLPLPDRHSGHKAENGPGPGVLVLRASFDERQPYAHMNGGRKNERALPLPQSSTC

insulin receptor [3] = molecular target: T1, insulin receptor; assay: Insulin receptor phosphorylation assay, receptor transfected HEK293 cells; format: cell-based; parameters: expressed in transfected cells; host or cells: HEK293; conditions: for EC50: Insulin Receptor EC50:, total phosphorylation; for EC50 / Insulin Receptor % Insulin: Table 10; for in vitro phosphorylation activity at the insulin receptor (result in words): FIGS. 22A, 22B
Method: (§1) Color development was stopped 5 min later by adding 0.05 ml 1 N HCl. Absorbance at 450 nm was measured on Titertek Multiscan MCC340 (ThermoFisher, Pittsburgh, Pa.).

IGF-1 receptor [4] = molecular target: T2, IGF-1 receptor; assay: IGF-1 receptor phosphorylation assay, receptor transfected HEK293 cells; format: cell-based; parameters: expressed in transfected cells; host or cells: HEK293; conditions: Table 10; for EC50: total phosphorylation
Method: as §1

[5] = Dipeptide half life on IGF1 (p-NH2-F)A19 analogs in PBS; format: physicochemical; conditions: buffer
Method: Accordingly, the IGF1A chain alone was determined to be a good model for the study of pro-drug half life on IGF1 B:A (Y^B16L^B17) analog peptides. […] For simplicity, prodrug half lives were determined using only the IGF1 A chain in the absence of the B chain. The half lives of each propeptide was determined as described in Example 5.

IGF-1 Receptor % IGF-1 (in test) (IGF-1 receptor [2]): 7.7%
Insulin Receptor % Insulin (insulin receptor [3]): 1575%
IGF-1 Receptor % IGF (IGF-1 receptor [4]): 111.538%
EC50 (IGF-1 receptor [4]): 0.78 nM
Molecule: CC[C@H](C)[C@H](NC(=O)CN)C(=O)N[C@H](C(=O)N[C@@H](CC(=O)O)C(=O)N[C@@H](CCC(=O)O)C(=O)N[C@H]1CSSC[C@@H]2NC(=O)[C@H](CO)NC(=O)[C@H](CCCNC(=N)N)NC(=O)[C@H](Cc3ccccc3)NC(=O)[C@H](CSSC[C@H](NC(=O)[C@H](CC(C)C)NC(=O)[C@@H](NC(=O)[C@H](CCC(=O)O)NC(=O)[C@@H]3CCCN3C(=O)CN)[C@@H](C)O)C(=O)NCC(=O)N[C@@H](C)C(=O)N[C@@H](CC(=O)O)C(=O)N[C@@H](CC(C)C)C(=O)N[C@@H](C(C)C)C(=O)N[C@@H](CC(=O)O)C(=O)N[C@@H](C)C(=O)N[C@@H](CC(C)C)C(=O)N[C@@H](Cc3ccc(O)cc3)C(=O)N[C@@H](CC(C)C)C(=O)N[C@@H](C(C)C)C(=O)N[C@H](C(=O)NCC(=O)N[C@@H](CC(=O)O)C(=O)N[C@@H](CCCNC(=N)N)C(=O)NCC(=O)N[C@@H](Cc3ccccc3)C(=O)N[C@@H](Cc3ccc(O)cc3)C(N)=O)CSSC[C@@H](C(=O)N[C@@H](C)C(=O)O)NC(=O)[C@H](Cc3ccc(O)cc3)NC(=O)[C@H](CCSC)NC(=O)[C@H](CCC(=O)O)NC(=O)[C@H](CC(C)C)NC(=O)[C@H](CCCNC(=N)N)NC(=O)[C@H](CCCNC(=N)N)NC(=O)[C@H](CC(C)C)NC(=O)[C@H](CC(=O)O)NC2=O)NC1=O)C(C)C [IGF-1 A:B(D10Y16L17) DPI A-COOH]

Ratio (insulin receptor [1]): 14.3
Insulin Receptor % insulin (in test) (insulin receptor [1]; Table 9): 36.5%
Insulin Receptor % native insulin activity (0.6 nM) (insulin receptor [1]; Table 9): 50.0%
IGF-1 Receptor % IGF-1 (in test) (IGF-1 receptor [2]): 3.0%
EC50 (insulin receptor [3]): 7 nM and 8.52 nM
Insulin Receptor % Insulin (insulin receptor [3]): 18.1% and 31.7%
Molecule: CC[C@H](C)[C@H](NC(=O)CN)C(=O)N[C@H](C(=O)N[C@@H](CC(=O)O)C(=O)N[C@@H](CCC(=O)O)C(=O)N[C@H]1CSSC[C@@H]2NC(=O)[C@H](CO)NC(=O)[C@H](CCCNC(=N)N)NC(=O)[C@H](Cc3ccccc3)NC(=O)[C@H](CSSC[C@H](NC(=O)[C@H](CC(C)C)NC(=O)[C@@H](NC(=O)[C@H](CCC(=O)O)NC(=O)[C@@H]3CCCN3C(=O)CN)[C@@H](C)O)C(=O)NCC(=O)N[C@@H](C)C(=O)N[C@@H](CCC(=O)O)C(=O)N[C@@H](CC(C)C)C(=O)N[C@@H](C(C)C)C(=O)N[C@@H](CC(=O)O)C(=O)N[C@@H](C)C(=O)N[C@@H](CC(C)C)C(=O)N[C@@H](Cc3ccc(O)cc3)C(=O)N[C@@H](CC(C)C)C(=O)N[C@@H](C(C)C)C(=O)N[C@H](C(=O)NCC(=O)N[C@@H](CC(=O)O)C(=O)N[C@@H](CCCNC(=N)N)C(=O)NCC(=O)N[C@@H](Cc3ccccc3)C(=O)N[C@@H](Cc3ccc(O)cc3)C(=O)N[C@@H](Cc3ccccc3)C(=O)N[C@@H](CC(N)=O)C(=O)N[C@@H](CCCCN)C(=O)N3CCC[C@H]3C(=O)N[C@H](C(=O)N[C@@H](CCC(=O)O)C(=O)N[C@@H](CCC(=O)O)C(=O)O)[C@@H](C)O)CSSC[C@@H](C(=O)N[C@@H](C)C(N)=O)NC(=O)[C@H](Cc3ccc(O)cc3)NC(=O)[C@H](CCSC)NC(=O)[C@H](CCC(=O)O)NC(=O)[C@H](CC(C)C)NC(=O)[C@H](CCCNC(=N)N)NC(=O)[C@H](CCCNC(=N)N)NC(=O)[C@H](CC(C)C)NC(=O)[C@H](CC(=O)O)NC2=O)NC1=O)C(C)C [IGF-1 A:B(E10 Y16L17)-E31E3 2B-COOH]

half-life ([5]; Half Life (hr)): 35.3 h
half-life ([5]; Half Life (hr) PBS): 35.3 h
Molecule: CC[C@H](C)[C@H](NC(=O)CN)C(=O)N[C@H](C(=O)N[C@@H](CC(=O)O)C(=O)N[C@@H](CCC(=O)O)C(=O)N[C@@H](C)C(=O)N[C@@H](C)C(=O)N[C@@H](Cc1ccccc1)C(=O)N[C@@H](CCCNC(=N)N)C(=O)N[C@@H](CO)C(=O)N[C@@H](C)C(=O)N[C@@H](CC(=O)O)C(=O)N[C@@H](CC(C)C)C(=O)N[C@@H](CCCNC(=N)N)C(=O)N[C@@H](CCCNC(=N)N)C(=O)N[C@@H](CC(C)C)C(=O)N[C@@H](CCC(=O)O)C(=O)N[C@@H](CCSC)C(=O)N[C@@H](Cc1ccc(NC(=O)[C@H](C)N(C)C(=O)[C@H](N)CCCCNC(C)=O)cc1)C(=O)N[C@@H](C)C(=O)N[C@@H](C)C(N)=O)C(C)C [dK(acetyl) N-methyl Ala] (H-GIVDEAAFRSADLRRLEM[Phe(4-NH2)]([NMeA-d(εLys)-Ac])AA-NH2; N-terminus assumed)

half-life ([5]; Half Life (hr)): 16.3 h
half-life ([5]; Half Life (hr) PBS): 17.2 h
Molecule: CC[C@H](C)[C@H](NC(=O)CN)C(=O)N[C@H](C(=O)N[C@@H](CC(=O)O)C(=O)N[C@@H](CCC(=O)O)C(=O)N[C@@H](C)C(=O)N[C@@H](C)C(=O)N[C@@H](Cc1ccccc1)C(=O)N[C@@H](CCCNC(=N)N)C(=O)N[C@@H](CO)C(=O)N[C@@H](C)C(=O)N[C@@H](CC(=O)O)C(=O)N[C@@H](CC(C)C)C(=O)N[C@@H](CCCNC(=N)N)C(=O)N[C@@H](CCCNC(=N)N)C(=O)N[C@@H](CC(C)C)C(=O)N[C@@H](CCC(=O)O)C(=O)N[C@@H](CCSC)C(=O)N[C@@H](Cc1ccc(NC(=O)CN(C)C(=O)[C@H](N)CCCCNC(C)=O)cc1)C(=O)N[C@@H](C)C(=O)N[C@@H](C)C(N)=O)C(C)C [dK(acetyl) Sar] (H-GIVDEAAFRSADLRRLEM[Phe(4-NH2)]([Sar-d(εLys)-Ac])AA-NH2; N-terminus assumed)

More lines, now with the values behind:

Molecule: CC[C@H](C)[C@H](NC(=O)CN)C(=O)N[C@H](C(=O)N[C@@H](CC(=O)O)C(=O)N[C@@H](CCC(=O)O)C(=O)N[C@H]1CSSC[C@@H]2NC(=O)[C@H](CO)NC(=O)[C@H](C)NC(=O)[C@H](Cc3c[nH]cn3)NC(=O)[C@H](CSSC[C@H](NC(=O)[C@H](CC(C)C)NC(=O)[C@H](Cc3c[nH]cn3)NC(=O)[C@H](CCC(=O)O)NC(=O)[C@@H]3CCCN3C(=O)CN)C(=O)NCC(=O)N[C@@H](C)C(=O)N[C@@H](CC(=O)O)C(=O)N[C@@H](CC(C)C)C(=O)N[C@@H](C(C)C)C(=O)N[C@@H](CC(=O)O)C(=O)N[C@@H](C)C(=O)N[C@@H](CC(C)C)C(=O)N[C@@H](Cc3ccc(O)cc3)C(=O)N[C@@H](CC(C)C)C(=O)N[C@@H](C(C)C)C(=O)N[C@H](C(=O)NCC(=O)N[C@@H](CC(=O)O)C(=O)N[C@@H](CCCNC(=N)N)C(=O)NCC(=O)N[C@@H](Cc3ccccc3)C(=O)N[C@@H](Cc3ccc(O)cc3)C(N)=O)CSSC[C@@H](C(=O)N[C@@H](CC(N)=O)C(=O)O)NC(=O)[C@H](Cc3ccc(O)cc3)NC(=O)[C@H](CCSC)NC(=O)[C@H](CCC(=O)O)NC(=O)[C@H](CC(C)C)NC(=O)[C@H](CCCNC(=N)N)NC(=O)[C@H](CCCNC(=N)N)NC(=O)[C@H](CC(C)C)NC(=O)[C@H](CC(=O)O)NC2=O)NC1=O)C(C)C
Ratio (insulin receptor [1]): 80.6
Insulin Receptor % insulin (in test) (insulin receptor [1]; Table 9): 1576.7% and 1667.0%
IGF-1 Receptor % IGF-1 (in test) (IGF-1 receptor [2]): 12.9%
EC50 (insulin receptor [3]): 0.15 nM and 0.25 nM
Insulin Receptor % Insulin (insulin receptor [3]; listed as IGF-1 A (H8 A9 N21) B(H5D10Y16L17) DPI A-COOH): 840% and 1080%
IGF-1 Receptor % IGF (IGF-1 receptor [4]): 181.395%
EC50 (IGF-1 receptor [4]): 0.43 nM

B1: DP20 2CTP: two end to end linked CTP peptides as the linking peptide (SEQ ID NO: 75) (protein, listed as Homo sapiens)
chain: GEEEEEKGPEHLCGAHLVDALYLVCGDRGFYSSSSRAPPPSLPSPSRLPGPSDTPILPQKSSSSRAPPPSLPSPSRLPGPSDTPILPQKGIVDECCHRSCDLRRLENYCN
in vitro phosphorylation activity at the insulin receptor (result in words) (insulin receptor [3]): appears to be active as an insulin agonist

B2: DP20 CTPC^0: CTP peptide linked to native proinsulin C peptide as linking peptide (SEQ ID NO: 73) (protein, listed as Homo sapiens)
chain: GEEEEEKGPEHLCGAHLVDALYLVCGDRGFYSSSSRAPPPSLPSPSRLPGPSDTPILPQKRREAEDLQVGQVELGGGPGAGSLQPLALEGSLQRKGIVDECCHRSCDLRRLENYCN
in vitro phosphorylation activity at the insulin receptor (result in words) (insulin receptor [3]): appears more potent than DP20 C^0CTP

B3: DP20 C^0CTP: native proinsulin C peptide linked to a CTP peptide as linking peptide (SEQ ID NO: 74) (protein, listed as Homo sapiens)
chain: GEEEEEKGPEHLCGAHLVDALYLVCGDRGFYRREAEDLQVGQVELGGGPGAGSLQPLALEGSLQRKSSSSRAPPPSLPSPSRLPGPSDTPILPQKGIVDECCHRSCDLRRLENYCN
in vitro phosphorylation activity at the insulin receptor (result in words) (insulin receptor [3]): appear to have activity at the insulin receptor
